Results as given in patent US10351915B2 (Berg LLC, priority 2009, dated 2019).

What was measured:
SKMEL-28 mitochondria = test: 2-D gel electrophoresis of mitochondria enriched samples; assay type: cell-based
a variety of cell types = test: Western blot analysis (Bcl-xL, Vimentin, oxidative phosphorylation and mitochondrial membrane proteins); assay type: cell-based; settings: 50 or 100 μM Q10
Description: Approximately 50 μg of protein were assayed per sample by immunoblotting. All treatments were run in triplicate with controls. […] The primary antibodies were incubated overnight at 4 degrees C. in a 5% BSA and TBST solution. Secondary antibodies were incubated for one hour at 4 degrees. All antibodies were purchased from Cell Signaling Technology. Antibodies were used at a ratio of 1:1000, with the exception of βActin at a ratio of 1:5000. Blots were developed and results were quantified using the NIH Java based densitometer analysis software Image J. All blots were also probed for and normalized to their respective βActin expression.
The first experiment processed and evaluated by Western blot and 2-D gel electrophoresis was carried out on the skin cancer cell line SKMEL-28.
A variety of cell types were evaluated by Western blot analysis against an antibody for Bcl-xL (FIG. 14), an antibody for Vimentin (FIG. 15), a series of antibodies for mitochondrial oxidative phosphorylation function (FIGS. 16-21) and against a series of antibodies related to mitochondrial membrane integrity (FIGS. 22-27).

[1] = test system: PaCa-2 pancreatic cancer cells; test: Oxygen consumption rate (OCR), SeaHorse XF analyzer; assay type: cell-based; settings: absence and presence of stressors
Description: (§1) (SeaHorse Biosciences Inc, North Billerica, Mass.).
(§2) In contrast, cancer cells (e.g., MCF-7, PaCa-2) are inherently primed to culture at higher levels of glucose compared to normal cells due to their glycolytic phenotype for maintenance in culture.

[2] = test system: MCF-7 breast cancer cells; test: as above; assay type: cell-based; settings: absence and presence of stressors
Description: as §1, §2

[3] = test system: Lactate Dehydrogenase (LDH); test: Western blot, Lactate Dehydrogenase levels; assay type: cell-based, human
Description: In this experiment, the cells were additionally treated with either 5 mM glucose (“5G”) or 22 mM glucose (“22G”). The samples derived from the cells were processed and run on a 4-12% Bis-Tris Novex NuPAGE gel as described above. The gels were run, transferred and stained essentially as described above.
After transfer each blot was dried for 15-20 minutes, activated with methanol for 5 seconds, washed with water for 5 minutes, and TBST for 15 minutes. The blots were blocked for 1 hour with 5% blocking reagent in TBS-T at room temperature and then washed 3 times with TBS-T (1×-15′; 2×5′ each) and probed with the primary antibody for Lactate Dehydrogenase (abcam ab2101; polyclonal) in 5% BSA (at 1:1000 dilutions) by incubation overnight at 4 deg C. with shaking. After the overnight incubation with primary antibody for Lactate Dehydrogenase, the blots were washed 3 times with TBS-T (1×-15′; 2×5′ each) and probed with the secondary antibody (rabbit antigoat; 1:10,000 dilution) for 1 h at room temperature. After 1 h of incubation with secondary antibodies, the blots were washed 3 times with TBS-T (1×-15′; 2×5′ each) and then incubated with ECF reagent for 5 mins and then each blot scanned with 5100 Fuji Laser scanner at 25 uM resolution, 16 bit, green laser, at 400V and at 500 V.
In this experiment, the cells were additionally treated with either 5 mM glucose (“5G”) or 22 mM glucose (“22G”). The samples derived from the cells were processed and the gels were run, transferred, stained and scanned essentially as described above.
The levels of LDH and PDH were determined by probing the blots successively with primary antibodies for LDH and PDH, essentially as described above.
The above blots were stripped by incubating for 30 minutes with methanol, followed by two 10 minute washes with TBS-T, then 30 minutes of incubation with Stripping buffer at 50 deg C., and followed by two washes with 100 ml or more of TBS-T for 30′ each. The blots were scanned in laser scanner to check for complete stripping. […]

Structure (SMILES): COC1=C(OC)C(=O)C(C/C=C(\C)CC/C=C(\C)CC/C=C(\C)CC/C=C(\C)CC/C=C(\C)CC/C=C(\C)CC/C=C(\C)CC/C=C(\C)CC/C=C(\C)CCC=C(C)C)=C(C)C1=O [Q10, Coenzyme Q10]
- Response, direction (SKMEL-28 mitochondria; 100 μM Q10, at 6 hr, protein spot 372): Up
- Response (SKMEL-28 mitochondria; 100 μM Q10, at 19 hr): Up only at 19 hr
- Response (SKMEL-28 mitochondria; 100 μM Q10, at 48 hr): Up at 48 hr
- levels of examined proteins (a variety of cell types): several of the examined proteins were upregulated or downregulated
- OCR values [1]: consistent reduction in OCR values
- OCR values [2]: consistent reduction in OCR values
- Lactate Dehydrogenase Normalized Volume (24 h) ([3]; HepG2, 5g glucose, 24 h, amount 50): 7900
- LDH expression ([3]; cancer): reduced
- LDH expression ([3]; normal cells): minimal effect
